Measured values from paper PMC10950963, “Anti-leishmanial activity of Eleutherine plicata Herb. and predictions of isoeleutherin and its analogues” (Frontiers in Chemistry, 2024).
Converted amounts (≈) assume the structure as drawn. “Also recorded” adds a separate entry of the source. Read-outs that look alike come from different tables or passages of the source.

Key:
Allium cepa = system: Allium cepa; parameters: method as in Castro et al., 2021a; details: Allium cepa model, 12.5 μg/mL in 72 h; ref Castro et al., 2021a; cited from earlier work
[1] = system: amastigotes of L. donovani; details: ref Kaiser et al., 2000; cited from earlier work
[2] = system: amastigotes of L. amazonensis; parameters: method as in Cunha-Junior et al., 2011; details: ref Cunha-Junior et al., 2011; cited from earlier work
Th cells = system: Th cells; parameters: method as in Hong et al., 2008; details: ref Hong et al., 2008; cited from earlier work
[3] = system: promastigotes of L. amazonensis; experiment: Inhibition of growth/viability of L. amazonensis promastigotes (MTT); format: cell-based; details: Leishmania amazonensis
Procedure: Inhibition of Leishmania growth was evaluated in vitro by cultivating promastigotes of L. amazonensis in stationary phase (5×10^6 parasites) in the presence of the extract, fractions and isoeleutherin (200–3.125 μg/mL) in 96-well culture plates (Nunc, Nunclon®, Roskilde, Denmark), for 72 h at 26°C. Viability was assessed by measuring the cleavage of MTT [3-(4,5-dimethylthiazol-2-yl)-2,5-diphenyl tetrazolium bromide] (Sigma) ([Ngure et al., 2009]). Absorbances were measured using a multiwell scanning spectrophotometer (Molecular Devices, Spectra Max Plus, Canada) at 490 nm. Amphotericin B (AmpB) was used as a positive control (25–0.3906 μg/mL). The concentration of products required to inhibit 50% of the viability of L. amazonensis (IC50) was determined by applying a sigmoidal regression of the individual concentration response curves of the compounds. The data are representative of independent experiments, carried out in triplicate, which presented similar results ([Mota et al., 2011]).

[4] = system: intracellular amastigote forms of L. amazonensis; experiment: Anti-amastigote assay in infected murine macrophages (Giemsa count); format: cell-based, Leishmania amazonensis; details: 500, 250 and 125 μg/mL, 72 h
Procedure: Murine macrophages (4 × 10^5 cells) were seeded on round glass coverslips into 24-well culture plates (Nunc) in RPMI 1640 medium (Sigma and Aldrich), supplemented with 20% fetal bovine serum (FBS), 2 mM L-glutamine, penicillin 50 IU/mL, and streptomycin 50 μg/mL, pH 7.4. After 24 h of incubation at 35°C in 5% CO2, promastigotes of L. amazonensis in stationary phase were added to the wells (4 × 10^6 parasites) to promote infection of macrophages, and the cultures were incubated for 4 h at 35°C in 5% CO2. Next, the free parasites were removed by extensive washing with RPMI 1640 medium, and the infected macrophages were quantified and treated with the extract, FA2, FA3, fraction FA4, and isoeleutherin (500–125 μg/mL, each) for 72 h at 35°C in 5% CO2. The negative control consisted of infected macrophages and culture medium. The positive control used AmpB (100–25 μg/mL). Then, coverslips were stained with Giemsa, and the percentage of inhibition of intramacrophage viability of Leishmania was determined by counting the number of amastigotes per 100 macrophages on each coverslip, under a light microscope (×100 magnification). The presented data were performed in triplicate, and the IC50 was determined using GraphPad Prism version 5.04 ([Silva, 2005]).

[5] = Cytotoxicity to macrophages; format: cell-based, mice; details: BALB/c, mouse, peritoneal macrophages
[6] = system: peritoneal macrophages from BALB/c mice; experiment: Cytotoxicity to macrophages; format: cell-based; details: peritoneal macrophages from BALB/c mice
[7] = system: Plasmodium falciparum sensitive to chloroquine; parameters: method as in Vale et al., 2020; details: ref Vale et al., 2020; cited from earlier work
HepG2 = system: HepG2; parameters: method as in Gomes et al., 2021; details: exposure for 24 h, compared with EEEp and FDMEp; ref Gomes et al., 2021; cited from earlier work
[8] = compared with EEEp and FDCMEp, ref Albuquerque et al., 2023, cited from earlier work

COc1cccc2c1C(=O)C1=C(C[C@H](C)O[C@@H]1C)C2=O [eleutherin]
percentage of chromosomal aberrations (Allium cepa): higher percentage of chromosomal aberrations than isoeleutherin

O=C1C=C(C2=CC(=O)c3cccc(O)c3C2=O)C(=O)c2c(O)cccc21 [3,3-Bijuglone]
IC50 for amastigotes of L. donovani [1]: 15 µg/mL

O=C1C2=C(C(=O)c3ccccc31)[C@H]1Oc3ccccc3[C@H]1CO2 [LQB-118]
reduction in the number of amastigotes of L. amazonensis [2]: concentration-dependent reduction

Cc1cc(=O)c2c(C)cc3cc(O)cc(O)c3c2o1 [eleutherinol, reference compound]
effect on cytokine production of Th cells (Th cells): inhibited the production of IFNc and IL-2

CC1=C(C2=C(C)C(=O)c3ccc(OCc4ccccc4)c(O)c3C2=O)C(=O)c2c(ccc(OCc3ccccc3)c2O)C1=O [6,6-Dibenzyloxy-3,3-bi-plumbagin]
IC50 for amastigotes of L. donovani [1]: 14.2 µg/mL

COc1cccc2c1C(=O)C1=C(C[C@@H](C)O[C@@H]1C)C2=O [Isoeleutherin, isoeleutherin]
IC50 ([3]; parasite form not given, sentence on selectivity index, read-out: IC50 against L. amazonensis): > 200 µg/mL
IC50 ([3]; promastigotes, 72 h at 26°C, MTT, read-out: IC50 against promastigote form of L. amazonensis): 25 µg/mL (≈ 91.8 µM)
anti-amastigote activity (number of amastigotes in infected macrophages vs negative control) [4]: No reductions in the number of amastigotes; also recorded: inactive
CC50 [5]: > 500 µg/mL
cytotoxicity on macrophages (in words) [6]: did not show cytotoxicity; also recorded: no cytotoxicity
activity in Plasmodium falciparum [7]: active
cytotoxicity in HepG2 (HepG2): the least toxic sample
effect on cytokine production of Th cells (Th cells): selectively stimulating IFNc production
genotoxicity / cytotoxicity in the micronucleus test [8]: lowest cytotoxicity
genotoxicity / cytotoxicity in the micronucleus test ([8]; listed as is eleutherin): less genotoxic

C[C@@H]1[C@H](O)[C@@H](C)/C=C/C=C/C=C/C=C/C=C/C=C/C=C/[C@H](O[C@@H]2O[C@H](C)[C@@H](O)[C@H](N)[C@@H]2O)C[C@@H]2O[C@](O)(C[C@@H](O)C[C@@H](O)[C@H](O)CC[C@@H](O)C[C@@H](O)CC(=O)O[C@H]1C)C[C@H](O)[C@H]2C(=O)O [Amphotericin B, reference compound]
CC50 [5]: > 100 µg/mL
